Where two headings read alike, the source gives them in different places.
Key:
[1] = target: T1, BCRP (Homo sapiens, UniProt Q9UNQ0); test: in vitro; conditions: Caco-2 cells, probe 3H-estrone-3-sulfate
T1 sequence (Q9UNQ0 1-655): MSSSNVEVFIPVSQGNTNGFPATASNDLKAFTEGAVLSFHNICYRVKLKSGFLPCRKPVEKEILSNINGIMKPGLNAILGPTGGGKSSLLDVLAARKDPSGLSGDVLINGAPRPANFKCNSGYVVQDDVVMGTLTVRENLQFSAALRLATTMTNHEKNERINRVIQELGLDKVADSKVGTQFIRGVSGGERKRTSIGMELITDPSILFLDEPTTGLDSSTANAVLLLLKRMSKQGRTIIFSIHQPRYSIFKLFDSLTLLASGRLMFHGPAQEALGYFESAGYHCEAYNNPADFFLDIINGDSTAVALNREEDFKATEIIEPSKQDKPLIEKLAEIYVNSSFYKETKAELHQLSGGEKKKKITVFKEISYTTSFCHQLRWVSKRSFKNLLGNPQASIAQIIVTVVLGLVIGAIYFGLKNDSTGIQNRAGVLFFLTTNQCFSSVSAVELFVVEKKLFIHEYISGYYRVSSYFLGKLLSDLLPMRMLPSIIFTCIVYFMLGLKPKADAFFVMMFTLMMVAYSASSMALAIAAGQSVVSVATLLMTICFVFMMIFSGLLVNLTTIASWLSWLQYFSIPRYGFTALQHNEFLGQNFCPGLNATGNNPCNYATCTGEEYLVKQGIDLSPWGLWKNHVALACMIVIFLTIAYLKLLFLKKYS

[2] = tested on: CYP2B6
[3] = tested on: CYP3A4 mRNA; test: in vitro; conditions: human, hepatocyte cultures
[4] = target: T2, OAT1 (Homo sapiens, UniProt Q4U2R8); test: OAT1 inhibition, PAH uptake in transfected HEK cells
T2 sequence (Q4U2R8 1-563): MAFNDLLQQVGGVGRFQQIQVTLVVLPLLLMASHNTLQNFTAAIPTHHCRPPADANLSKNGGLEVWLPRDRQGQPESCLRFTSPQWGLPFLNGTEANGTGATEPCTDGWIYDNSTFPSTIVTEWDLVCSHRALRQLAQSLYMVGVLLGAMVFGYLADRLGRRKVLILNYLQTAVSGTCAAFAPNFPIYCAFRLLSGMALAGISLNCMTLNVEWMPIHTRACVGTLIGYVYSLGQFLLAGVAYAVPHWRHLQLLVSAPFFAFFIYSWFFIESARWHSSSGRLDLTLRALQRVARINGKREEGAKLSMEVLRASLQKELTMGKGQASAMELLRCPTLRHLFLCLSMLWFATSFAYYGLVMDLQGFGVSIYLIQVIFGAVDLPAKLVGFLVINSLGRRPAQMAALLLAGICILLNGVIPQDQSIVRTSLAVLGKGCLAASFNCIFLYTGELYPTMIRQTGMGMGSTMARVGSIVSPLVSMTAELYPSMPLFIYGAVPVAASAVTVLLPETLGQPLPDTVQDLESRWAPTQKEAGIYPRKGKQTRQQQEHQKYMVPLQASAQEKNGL

[5] = target: T3, CYPs in human liver microsomes (HLM) (Homo sapiens, UniProt P20813); test: CYP reaction phenotyping in HLM with chemical inhibitors (% remaining); conditions: +NADPH +thio-TEPA (CYP2B6)
T3 sequence (P20813 1-491): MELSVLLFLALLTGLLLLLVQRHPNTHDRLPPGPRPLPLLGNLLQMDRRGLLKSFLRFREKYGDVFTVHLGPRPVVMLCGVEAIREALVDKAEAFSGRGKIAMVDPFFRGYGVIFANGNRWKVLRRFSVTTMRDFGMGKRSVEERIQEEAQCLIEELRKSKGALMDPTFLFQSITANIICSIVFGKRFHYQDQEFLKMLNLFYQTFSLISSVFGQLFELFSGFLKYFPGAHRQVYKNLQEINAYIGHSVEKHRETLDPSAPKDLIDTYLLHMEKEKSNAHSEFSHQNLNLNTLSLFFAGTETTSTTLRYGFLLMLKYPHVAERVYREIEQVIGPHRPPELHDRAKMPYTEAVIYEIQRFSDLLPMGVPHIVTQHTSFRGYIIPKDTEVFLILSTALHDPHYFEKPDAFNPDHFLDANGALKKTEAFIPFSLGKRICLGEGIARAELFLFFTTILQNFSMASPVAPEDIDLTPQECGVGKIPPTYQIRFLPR

[6] = target: T4, CYPs in human liver microsomes (HLM) (Homo sapiens, UniProt P10632); test: as above; conditions: +NADPH +montelukast (CYP2C8)
T4 sequence (P10632 1-490): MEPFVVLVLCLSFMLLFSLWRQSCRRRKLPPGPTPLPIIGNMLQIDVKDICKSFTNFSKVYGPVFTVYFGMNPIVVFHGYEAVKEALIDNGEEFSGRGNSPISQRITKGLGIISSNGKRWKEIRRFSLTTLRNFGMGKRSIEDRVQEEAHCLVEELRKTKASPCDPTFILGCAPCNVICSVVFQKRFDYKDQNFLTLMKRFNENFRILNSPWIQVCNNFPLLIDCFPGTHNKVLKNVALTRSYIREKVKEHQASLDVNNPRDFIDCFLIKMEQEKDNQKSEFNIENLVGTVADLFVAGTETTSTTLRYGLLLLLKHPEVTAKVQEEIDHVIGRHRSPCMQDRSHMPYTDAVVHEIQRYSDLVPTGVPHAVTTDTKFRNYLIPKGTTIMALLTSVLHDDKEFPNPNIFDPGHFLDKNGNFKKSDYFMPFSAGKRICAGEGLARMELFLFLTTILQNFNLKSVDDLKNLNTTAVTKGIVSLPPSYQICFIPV

## C[C@H](CCC(=O)NCC(=O)O)[C@H]1CC[C@H]2[C@@H]3[C@@H](O)C[C@@H]4C[C@H](O)CC[C@]4(C)[C@H]3CC[C@]12C [Glycoursodeoxycholic acid, glycoursodeoxycholic acid]
[1]
  potency estimated from few doses: > 100000 nM
[2]; Donor 1
  Maximum fold induction of CYP2B6 activity: 1.50 fold
[2]; Donor 2
  Maximum fold induction of CYP2B6 activity: 2.81 fold
[2]; Donor 3
  Maximum fold induction of CYP2B6 activity: 1.52 fold
[3]
  fold induction at 72 h: 2.44

## tauroursodeoxycholic acid [TUDCA]
[4]; previous study, converted
  IC50 for in vitro inhibition of human OAT1: 0.035 to 0.111 µg/mL
[4]; read-out: IC50 for in vitro inhibition of human OAT1, previous study (Example 6)
  IC50: 74 to 222 nM
[5]; 5 min
  % remaining of TA in HLM: 112%
[5]; 10 min
  % remaining of TA in HLM: 112%
[5]; 20 min
  % remaining of TA in HLM: 122%
[5]; 30 min
  % remaining of TA in HLM: 116%
[6]; 5 min
  % remaining of TA in HLM: 101%
[6]; 10 min
  % remaining of TA in HLM: 103%
[6]; 20 min
  % remaining of TA in HLM: 95.5%
[6]; 30 min
  % remaining of TA in HLM: 105%
[6]; 60 min
  % remaining of TA in HLM: 97.7%
